Assay results as given in patent publication US9884823B2, “Oxime ether acetate compound, preparation method therefor and weeding application thereof” (ZHEJIANG UNIVERSITY OF TECHNOLOGY, priority 2014, dated 2018).
Where two headings read alike, the source gives them in different places.

Assays:
Barnyardgrass [1] = test: Culture dish method (general screening); format: in vivo, barnyard grass; settings: 100 mg/L, 7 days
Text: (§2) Culture dish method (general screening): The test targets were radish, cucumber, rape, wheat, sorghum and barnyard grass; the seeds of wheat, sorghum and radish were germinated in advance, and the uniform emerge-germinating seeds were used in the test.

Rice = settings: 150 g a.i./ha; post-emergence spray treatment
Corn = settings: post-emergence spray treatment
Mustard = settings: 150 g a.i./ha, 30 days, Table 9
Rape [2] = test: Culture dish method (general screening); format: in vivo; settings: 100 mg/L, 7 days
Text: as §2

Soybean = settings: 150 g a.i./ha; post-emergence spray treatment
Cotton = settings: 150 g a.i./ha; post-emergence spray treatment
Barnyardgrass [3] = test: Potted plants live body test; format: in vivo, barnyard grass
Small quinoa = settings: 150 g a.i./ha, 30 days, Table 9
[4] = test system: broadleaf weeds such as mustard, small quinoa, Abutilon, Amaranthus retroflexus and Eclipta prostrate; settings: 150 g a.i./ha
weeds = settings: pre-emergence soil treatment; dose lowered below 150 g a.i./ha
[5] = test system: grass weeds such as crabgrass, barnyard grass, dog point
Radish = test: Culture dish method (general screening); format: in vivo; settings: 100 mg/L, 7 days
Text: as §2

Rape [6] = settings: 150 g a.i./ha; post-emergence spray treatment
Cucumber = test: Culture dish method (general screening); format: in vivo; settings: 100 mg/L, 7 days
Text: as §2

Chinese sorghum = test: Culture dish method (general screening); format: in vivo; settings: 100 mg/L, 7 days
Text: as §2

Barley = settings: post-emergence spray treatment
Wheat = test: Culture dish method (general screening); format: in vivo; settings: 100 mg/L, 7 days
Text: as §2

Eclipta prostrata = test: Potted plants live body test; format: in vivo; settings: for efficiency, Eclipta prostrata: 30 days, Table 9
Summary of the method: (§1)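 Weeds were sown directly into 7.5 cm pots of garden soil:nursery matrix (1:2, v/v) and covered with 0.2 cm soil. Compounds were dissolved in DMF with 1 wt % Tween-80 to a 1.0˜5.0% stock, then diluted with distilled water for treatment.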

Abutilon = test: Potted plants live body test; format: in vivo
Summary of the method: as §1

amaranthus retroflexus = test: Potted plants live body test; format: in vivo
Summary of the method: as §1

Dog point = test: Potted plants live body test; format: in vivo
Summary of the method: as §1

Crabgrass = test: Potted plants live body test; format: in vivo
Summary of the method: as §1

[7] = Pre-emergence soil treatment, 37.5 g a.i./ha
[8] = Pre-emergence soil treatment, 75 g a.i./ha
[9] = Pre-emergence soil treatment, 150 g a.i./ha, Table 10
[10] = postemergence spraying, 37.5 g a.i./ha
[11] = postemergence spraying, 75 g a.i./ha
[12] = postemergence spraying, 150 g a.i./ha, Table 10
[13] = Postemergence spraying, 150 g a.i./ha, 30 days, Table 9
[14] = Pre-emergence soil treatment, 150 g a.i./ha, 30 days, Table 9

CON=C(C(=O)OC)c1ccccc1COc1ccc(-c2ncc(Cl)cc2Cl)cc1 [Compound 133]
inhibition rate, Barnyardgrass Root (Barnyardgrass [1]; root): 100%
inhibition rate, Barnyardgrass Stem (Barnyardgrass [1]; stem): 100%
Crop inhibition rate, Rice (Rice): 30%
Crop inhibition rate, Corn (Corn; 150 g a.i./ha): 0%
crop safety for corns (Corn): safer
efficiency, Mustard (Mustard; Postemergence spraying): 100%
efficiency, Mustard (Mustard; Pre-emergence soil treatment): 100%
inhibition rate, Rape Root (Rape [2]; root): 100%
inhibition rate, Rape Stem (Rape [2]; stem): 100%
Crop inhibition rate, Soybean (Soybean): 40%
Crop inhibition rate, Cotton (Cotton): 50%
efficiency, Barnyardgrass (Barnyardgrass [3]; [7]): 0%
efficiency, Barnyardgrass (Barnyardgrass [3]; [8]): 0%
efficiency, Barnyardgrass (Barnyardgrass [3]; [9]): 0%
efficiency, Barnyardgrass (Barnyardgrass [3]; [10]): 0%
efficiency, Barnyardgrass (Barnyardgrass [3]; [11]): 0%
efficiency, Barnyardgrass (Barnyardgrass [3]; [12]): 0%
efficiency, Small quinoa (Small quinoa; Postemergence spraying): 100%
efficiency, Small quinoa (Small quinoa; Pre-emergence soil treatment): 100%
inhibition rate on the growth of broadleaf weeds ([4]; 30 days): 100%
herbicidal activity on broadleaf weeds targets ([4]; 30 days after administration, Table 9 summary): herbicidal activity
activity on the growth of broadleaf weeds ([4]; postemergence spraying, 30 days, vs clear water control): inhibitory activity
activity on 6 kinds of weed targets (weeds): significantly decreased activity or no activity
activity for grass targets such as crabgrass and dog point ([5]; 150 g a.i./ha, 30 days after administration, Table 9 summary): poor activity
activity on grass weeds such as crabgrass, dog point ([5]; postemergence spraying, 150 g a.i./ha, 30 days): almost have no activity
activity on crabgrass, barnyard grass, dog point ([5]; postemergence treatment, 150, 75, 37.5 g a.i./ha): not good activity or no activity
activity on grass weeds ([5]; pre-emergence soil treatment, 150 g a.i./ha): not good activity
inhibition rate, Radish Root (Radish; root): 100%
inhibition rate, Radish Stem (Radish; stem): 100%
Crop inhibition rate, Rape (Rape [6]): 100%
inhibition rate, Cucumber Root (Cucumber; root): 100%
inhibition rate, Cucumber Stem (Cucumber; stem): 100%
inhibition rate, Chinese sorghum Root (Chinese sorghum; root): 100%
inhibition rate, Chinese sorghum Stem (Chinese sorghum; stem): 100%
Crop inhibition rate, Barley (Barley; 150 g a.i./ha): 0%
crop safety for barleys (Barley): safer
inhibition rate, Wheat Root (Wheat; root): 50%
inhibition rate, Wheat Stem (Wheat; stem): 0%
efficiency, Eclipta prostrata (Eclipta prostrata; Postemergence spraying, 150 g a.i./ha): 100%
efficiency, Eclipta prostrate (Eclipta prostrata; [7]): 0%
efficiency, Eclipta prostrate (Eclipta prostrata; [8]): 0%
efficiency, Eclipta prostrata (Eclipta prostrata; Pre-emergence soil treatment, 150 g a.i./ha): 100%
efficiency, Eclipta prostrate (Eclipta prostrata; [9]): 100%
efficiency, Eclipta prostrate (Eclipta prostrata; [10]): 97.5%
efficiency, Eclipta prostrate (Eclipta prostrata; [11]): 100%
efficiency, Eclipta prostrate (Eclipta prostrata; [12]): 100%
efficiency, Abutilon (Abutilon; [13]): 100%
efficiency, Abutilon (Abutilon; [7]): 0%
efficiency, Abutilon (Abutilon; [8]): 0%
efficiency, Abutilon (Abutilon; [14]): 100%
efficiency, Abutilon (Abutilon; [9]): 100%
efficiency, Abutilon (Abutilon; [10]): 100%
efficiency, Abutilon (Abutilon; [11]): 100%
efficiency, Abutilon (Abutilon; [12]): 100%
efficiency on Abutilon (Abutilon; postemergence treatment, over doses 150, 75, 37.5 g a.i./ha): 100%
efficiency, amaranthus retroflexus (amaranthus retroflexus; [13]): 100%
efficiency, amaranthus retroflexus (amaranthus retroflexus; [7]): 20%
efficiency, amaranthus retroflexus (amaranthus retroflexus; [8]): 30%
efficiency, amaranthus retroflexus (amaranthus retroflexus; [14]): 100%
efficiency, amaranthus retroflexus (amaranthus retroflexus; [9]): 100%
efficiency, amaranthus retroflexus (amaranthus retroflexus; [10]): 100%
efficiency, amaranthus retroflexus (amaranthus retroflexus; [11]): 100%
efficiency, amaranthus retroflexus (amaranthus retroflexus; [12]): 100%
efficiency, Dog point (Dog point; [13]): 0%
efficiency, Dog point (Dog point; [7]): 0%
efficiency, Dog point (Dog point; [8]): 0%
efficiency, Dog point (Dog point; [14]): 50%
efficiency, Dog point (Dog point; [9]): 50%
efficiency, Dog point (Dog point; [10]): 0%
efficiency, Dog point (Dog point; [11]): 0%
efficiency, Dog point (Dog point; [12]): 0%
efficiency, Crabgrass (Crabgrass; [13]): 0%
efficiency, Crabgrass (Crabgrass; [7]): 0%
efficiency, Crabgrass (Crabgrass; [8]): 0%
efficiency, Crabgrass (Crabgrass; [14]): 50%
efficiency, Crabgrass (Crabgrass; [9]): 50%
efficiency, Crabgrass (Crabgrass; [10]): 0%
efficiency, Crabgrass (Crabgrass; [11]): 0%
efficiency, Crabgrass (Crabgrass; [12]): 0%
